US20260115197A1, “TREATMENT COMPOSITION FOR INHIBITING SYSTEMIC SCLEROSIS VIMENTIN MUTANT PROTEIN ACTIVITY BY USING STAT6 INHIBITOR” (THE CATHOLIC UNIVERSITY OF KOREA INDUSTRY-ACADEMIC …, priority 2022, published 2026)

Experiments:
[1] = test system: cell surface Vimentin (CSV) and fibrosis factors aSMA, Col1, IL-17; experiment: Fibrosis factors and cell surface Vimentin in skin tissue of systemic sclerosis mouse, immunohistochemical staining; assay type: in vivo, B6 mouse; conditions: 10 mg/kg orally daily, vs Vehicle group
Description: (§1) To determine whether the STAT6 inhibitor of the present disclosure alleviated systemic sclerosis, a systemic sclerosis animal model was constructed. Specifically, a 2×2 cm area on the nape of the neck of the B6 mouse was shaved using a clipper, and then subcutaneously injected with 100 μL of PBS containing 50 μg of bleomycin (BLM) daily for 2 weeks to induce systemic sclerosis. One week after the start of BLM administration, 200 μL of vehicle solution (10% DMSO, 40% PEG300, 5% tween 80 and 45% Saline) containing the STAT6 inhibitor at a concentration of 10 mg/kg was orally administered daily. Thereafter, the blood from the mouse was collected on week 1 and week 5 after induction of systemic sclerosis, and the activity of M2 macrophages capable of inducing fibrosis from the collected blood was analyzed using flow cytometry. As a control group, a wild-type mouse (WT) and a Vehicle group that was induced with systemic sclerosis but not treated with a drug were used.
In autoimmune diseases, it has been reported that Vimentin played an important role in cell interaction and the function of the immune system, and mutated or natural-type Vimentin was involved in the inflammatory responses and the pathogenesis of various autoimmune diseases (Autoimmun Rev. 2018 September: 17 (9): 926-934. doi: 10.1016/j.autrev.2018.04.004. Epub 2018 Jul. 17.), and thus, even in systemic sclerosis, the effect of the STAT6 inhibitor on the expression pattern of cell surface Vimentin (CSV) was also identified. Specifically, the expression of fibrosis factors aSMA, Col1, and IL-17 and CSV-positive cells in the skin tissue obtained in Example 4-1 was identified by immunohistochemical staining.

spleen single cells = experiment: Control of fibrosis-related immunocytes in TGF-β-treated spleen single cells, flow cytometry; assay type: cell-based, B6 mouse; conditions: 10 nM, with 10 ng/ml TGF-β, 72 hours; vs TGF-β alone
Description: In order to identify an effect of inhibiting signal transducer and activator of transcription 6 (STAT6) on systemic sclerosis of the present disclosure, the control effect of immunocytes related to fibrosis was identified. Specifically, spleen single cells were obtained from a B6 mouse, treated with 10 ng/ml of transforming growth factor-β (TGF-β) and 10 nM of a STAT6 inhibitor (YM-341619, Chemical Formula 1), and then cultured for 72 hours. The expression of profibrotic T cells, M2 macrophages, and Treg related to systemic sclerosis was analyzed by flow cytometry. In addition, the expression ratio of M2 macrophages and M1 macrophages was identified to identify the control of immunocytes. As a control group, an untreated control group (Nil) and a group treated with TGF-β alone were used.

M2 macrophages = experiment: M2 macrophage activity in blood of bleomycin-induced systemic sclerosis animal model, flow cytometry; assay type: in vivo, B6 mouse; conditions: 10 mg/kg orally daily; BLM-induced; vs Vehicle group
Description: as §1

[2] = test system: pSTAT6 and CD8 positive T cells; experiment: pSTAT6 and CD8 positive T cells in skin and lung tissues of systemic sclerosis mouse, confocal microscopy; assay type: in vivo, B6 mouse; conditions: 10 mg/kg orally daily, vs Vehicle group
[3] = test system: Vimentin antigen-specific systemic sclerosis animal model; experiment: Skin fibrosis and CSV expression in Vimentin antigen-specific systemic sclerosis animal model; assay type: in vivo, SKG mouse; conditions: 10 mg/kg subcutaneously three times a week until week 5; vs vim SSc group
Description: In systemic sclerosis, Vimentin increased the disease symptom activity of systemic sclerosis, and thus, the effect of the STAT6 inhibitor was evaluated in a Vimentin antigen-specific systemic sclerosis animal model. Specifically, systemic sclerosis was induced by immunizing a 8-week-old SKG mouse with a Vimentin protein as an antigen and then subcutaneously injecting 100 μL of Bleomycin (BLM) six times a week for two weeks. Thereafter, on week 2 of systemic sclerosis induction, the mouse was secondary immunized with the Vimentin protein, and then subcutaneously injected with the STAT6 inhibitor of the present disclosure three times a week at a concentration of 10 mg/kg until week 5 from the starting of the experiment. Thereafter, at the end point of the experiment, the mouse was humanely sacrificed, and skin and lung tissues were obtained, and then the thickness of the skin dermal layer was identified by H&E staining, […] The specific experimental process was illustrated in FIG. 9, and as a control group, a Vimentin antigen-specific systemic sclerosis animal model (vim SSc group) with increased disease symptom activity by a Vimentin antigen was used.

[4] = test system: human dermal fibroblast line; experiment: Expression of fibrosis genes in TGF-β-treated fibroblasts, real-time PCR; assay type: cell-based; conditions: with 10 ng/ml TGF-β, 24 hours; vs TGF-β alone
Description: In order to identify the effect of STAT6 inhibition on systemic sclerosis of the present disclosure, inhibition of fibrosis genes of fibroblasts was identified. Specifically, a human dermal fibroblast line was treated with 10 ng/ml of TGF-β and […] of an STAT6 inhibitor and then cultured for 24 hours. Thereafter, the expression of fibrosis factors, TGF-β, Col1a1 (Collagen, type I, alpha 1), and α-SMA 10 (alpha smooth muscle actin), was identified by real-time PCR.

[5] = test system: cell surface Vimentin (CSV) and fibrosis factors aSMA, Col1, IL-17; experiment: Fibrosis factors and cell surface Vimentin in lung tissue of systemic sclerosis mouse, immunohistochemical staining; assay type: in vivo, B6 mouse; conditions: 10 mg/kg orally daily, vs Vehicle group
Description: as §1
It was identified whether the STAT6 inhibition of the present disclosure inhibited cell surface Vimentin in the tissue. Specifically, the expression of fibrosis factors aSMA, Col1, and IL-17 and CSV-positive cells in the lung tissue obtained in Example 4-2 was identified by immunohistochemical staining.

[6] = test system: CD103 and CD8 positive cells (CD8 TRM); experiment: IL-17 or IFNγ expression CD103 and CD8 positive cells (CD8 TRM) in skin of Vimentin antigen-specific systemic sclerosis animal model, confocal microscope; assay type: in vivo, SKG mouse; conditions: 10 mg/kg subcutaneously three times a week; vs vim SSc group
Description: In systemic sclerosis, Vimentin increased the disease symptom activity of systemic sclerosis, and thus, the effect of the STAT6 inhibitor was evaluated in a Vimentin antigen-specific systemic sclerosis animal model. Specifically, systemic sclerosis was induced by immunizing a 8-week-old SKG mouse with a Vimentin protein as an antigen and then subcutaneously injecting 100 μL of Bleomycin (BLM) six times a week for two weeks. Thereafter, on week 2 of systemic sclerosis induction, the mouse was secondary immunized with the Vimentin protein, and then subcutaneously injected with the STAT6 inhibitor of the present disclosure three times a week at a concentration of 10 mg/kg until week 5 from the starting of the experiment. Thereafter, at the end point of the experiment, the mouse was humanely sacrificed, and skin and lung tissues were obtained, and then the thickness of the skin dermal layer was identified by H&E staining, and the expression of CSV in the lung tissue was identified by immunohistochemical staining. The specific experimental process was illustrated in FIG. 9, and as a control group, a Vimentin antigen-specific systemic sclerosis animal model (vim SSc group) with increased disease symptom activity by a Vimentin antigen was used. […]

[7] = test system: systemic sclerosis animal model; experiment: Pulmonary fibrosis in systemic sclerosis animal model, H&E staining; assay type: in vivo, B6 mouse; conditions: 10 mg/kg orally daily; BLM-induced; vs Vehicle group
Description: as §1
It has been identified whether the STAT6 inhibition of the present disclosure inhibited pulmonary fibrosis in systemic sclerosis. Specifically, a lung tissue was obtained from the mouse sacrificed in the Example 4-1 above, and subjected to H&E staining to determine the histological score for pulmonary fibrosis.

[8] = test system: systemic sclerosis animal model; experiment: Skin fibrosis in systemic sclerosis animal model, H&E staining; assay type: in vivo, B6 mouse; conditions: 10 mg/kg orally daily; BLM-induced; vs Vehicle group
Description: as §1
To determine whether the STAT6 inhibitor of the present disclosure alleviated systemic sclerosis, inhibition of skin fibrosis was identified. […]

`NC(=O)c1cnc(Nc2ccc(N3CCOCC3)cc2)nc1NCc1c(F)ccc(F)c1F` [STAT6 inhibitor, YM-341619] was tested, and the “expression of Col1 in skin tissue” value [1] was “significantly reduced”, the “expression of IL-17 in skin tissue” value [1] was “significantly reduced” and the “expression of aSMA in skin tissue” value [1] was “significantly reduced”. The “number of CSV positive cells in skin tissue” value [1] was “significantly reduced”, the M2/M1 expression ratio (spleen single cells) was “significantly reduced” and the “expression of M2 macrophages” value (spleen single cells) was “significantly reduced”. The “expression of Treg” value (spleen single cells) was “significantly increased”, the “expression of pro-fibrosis T cells (IL-4+ T cells and IL-4+ and IL-17+ T cells)” value (spleen single cells) was “significantly reduced” and the “activity of M2 macrophages capable of inducing fibrosis in blood” value (M2 macrophages) was “significantly reduced”. The “expression of pSTAT6 and CD8 positive T cells in lung tissue” value ([2]; lung) was “significantly reduced”, the “expression of pSTAT6 and CD8 positive T cells in skin tissue” value ([2]; skin) was “significantly reduced” and the “expression of CSV in the skin tissue” value [3] was “significantly reduced”. The “thickness of the skin dermis layer” value [3] was “significantly reduced”, the “expression of fibrosis gene Col1a1” value [4] was “significantly decreased” and the “expression of fibrosis gene TGF-β” value [4] was “significantly decreased”. For the same compound, the “expression of fibrosis gene α-SMA” value [4] was “significantly decreased”, the “expression of Col1 in lung tissue” value [5] was “significantly reduced” and the “expression of IL-17 in lung tissue” value [5] was “significantly reduced”. For the same compound, the “expression of aSMA in lung tissue” value [5] was “significantly reduced”, the “number of CSV positive cells in lung tissue” value [5] was “significantly reduced” and the “IFNγ expression CD103 and CD8 positive cells in skin tissue” value [6] was “no change”. For the same compound, the “IL-17 expression CD103 and CD8 positive cells (CD8 TRM) in skin tissue” value [6] was “significantly reduced”, the “histological score for pulmonary fibrosis” value [7] was “significantly reduced” and the “thickness of the skin dermal layer” value [8] was “significantly reduced”.
